Data reported in the supplement of paper PMC10307832.

Key:
Assay in all cases: relative viability (nuclei count vs DMSO), 5 days (fraction); higher = more cells survive
[1] = tested on: A-427
In short: (§1)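 Cells from lung cancer lines were seeded into 1536-well plates and, one day later, dosed by pin tool. Treatments were either a single drug or a fixed dose of an anchor drug with five library-drug doses (not always all listed) in √10 steps. After 5 days, nuclei were stained in a one-step fixation (final 0.05% Triton X-100, 1% formaldehyde, 1 ug/ml Hoechst) and counted on 4× images, and relative viability is the treated-to-vehicle nuclei ratio, as the median of duplicate plates.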

[2] = tested on: ABC-1
In short: as §1

[3] = tested on: EMC-BAC-2
In short: as §1

[4] = tested on: HARA
In short: as §1

[5] = tested on: HOP-62
In short: as §1

[6] = tested on: LK-2
In short: as §1

[7] = tested on: LXF-289
In short: as §1

[8] = tested on: NCI-H1792
In short: as §1

[9] = tested on: NCI-H1944
In short: as §1

[10] = tested on: NCI-H1993
In short: as §1

[11] = tested on: NCI-H2009
In short: as §1

Work on `O=c1cc(N2CCOCC2)oc2c(-c3cccc4c3sc3ccccc34)cccc12` + CCNC(=O)c1noc(-c2cc(C(C)C)c(O)cc2O)c1-c1ccc(CN2CCOCC2)cc1 [Luminespib] (partner 0.01 µM) yielded a relative viability ([1]; first compound 0.01 µM) of 0.944, a relative viability ([1]; first compound 0.03162 µM) of 0.903 and a relative viability ([1]; first compound 0.1 µM) of 0.898. The relative viability ([1]; first compound 0.3162 µM) was 0.93, the relative viability ([1]; first compound 1 µM) was 1.01 and the relative viability ([2]; first compound 0.01 µM) was 0.458. For the same molecule, the relative viability ([2]; first compound 0.03162 µM) was 0.452, the relative viability ([2]; first compound 0.1 µM) was 0.796 and the relative viability ([2]; first compound 0.3162 µM) was 0.501. It also gave a relative viability ([2]; first compound 1 µM) of 0.53, a relative viability ([3]; first compound 0.01 µM) of 1.21 and a relative viability ([3]; first compound 0.03162 µM) of 1.24. It also gave a relative viability ([3]; first compound 0.1 µM) of 1.14, a relative viability ([3]; first compound 0.3162 µM) of 1.07 and a relative viability ([3]; first compound 1 µM) of 1.11. It also gave a relative viability ([4]; first compound 0.01 µM) of 0.682, a relative viability ([4]; first compound 0.03162 µM) of 0.679 and a relative viability ([4]; first compound 0.1 µM) of 0.806. The relative viability ([4]; first compound 0.3162 µM) was 0.771, the relative viability ([4]; first compound 1 µM) was 0.905 and the relative viability ([5]; first compound 0.01 µM) was 1.05. It also gave a relative viability ([5]; first compound 0.03162 µM) of 0.822, a relative viability ([5]; first compound 0.1 µM) of 0.842 and a relative viability ([5]; first compound 0.3162 µM) of 1.03. The relative viability ([5]; first compound 1 µM) was 0.974, the relative viability ([6]; first compound 0.01 µM) was 0.181 and the relative viability ([6]; first compound 0.03162 µM) was 0.217. For the same molecule, the relative viability ([6]; first compound 0.1 µM) was 0.198, the relative viability ([6]; first compound 0.3162 µM) was 0.176 and the relative viability ([6]; first compound 1 µM) was 0.139. For the same molecule, the relative viability ([7]; first compound 0.01 µM) was 0.646, the relative viability ([7]; first compound 0.03162 µM) was 0.657 and the relative viability ([7]; first compound 0.1 µM) was 0.773. The relative viability ([7]; first compound 0.3162 µM) was 0.752, the relative viability ([7]; first compound 1 µM) was 0.714 and the relative viability ([8]; first compound 0.01 µM) was 0.502. The relative viability ([8]; first compound 0.03162 µM) was 0.359, the relative viability ([8]; first compound 0.1 µM) was 0.576 and the relative viability ([8]; first compound 0.3162 µM) was 0.497. It also gave a relative viability ([8]; first compound 1 µM) of 0.531, a relative viability ([9]; first compound 0.01 µM) of 0.785 and a relative viability ([9]; first compound 0.03162 µM) of 0.758. For the same molecule, the relative viability ([9]; first compound 0.1 µM) was 0.687, the relative viability ([9]; first compound 0.3162 µM) was 0.728 and the relative viability ([9]; first compound 1 µM) was 0.749. For the same molecule, the relative viability ([10]; first compound 0.01 µM) was 0.585, the relative viability ([10]; first compound 0.03162 µM) was 0.891 and the relative viability ([10]; first compound 0.1 µM) was 0.984. The relative viability ([10]; first compound 0.3162 µM) was 0.697, the relative viability ([10]; first compound 1 µM) was 0.813 and the relative viability ([11]; first compound 0.01 µM) was 0.931. The relative viability ([11]; first compound 0.03162 µM) was 0.899, the relative viability ([11]; first compound 0.1 µM) was 0.995 and the relative viability ([11]; first compound 0.3162 µM) was 0.962. The relative viability ([11]; first compound 1 µM) was 0.97.
